Measurements published in patent publication US3985878A, “Anti-inflammatory and antirheumatic compounds and preparation” (priority 1974, dated 1976).
“And” between values parts separate entries of the source, which are not always exact repeats. Equal entries are not always repeated. Where two headings read alike, the source gives them in different places.

Experiments:
[1] = Irritant and ulceroid (gastrolesive) activity on the gastric mucosa; details: in vivo, rat
Procedure: 4. Irritant and ulceroid activity on the gastric mucosa
The experimental evaluation of this activity was made on rats, by the method here reported:
The compound is administered orally to rats which have fasted for 12 hours, the animals being killed 4 hours after the administration.
Regarded as positive, i.e. with stomach damage, are those animals which have at least one haemorrhage point on the stomach wall.
By ED50 there is meant that dose of the drug which can […] in 50% of the animals treated, the formation of these haemorrhages.
In Table 6 there are compared CR 604 and Indometacin, since the latter is, amongst them all, the nearest to the anti-inflammatory activity values of CR 604.

[2] = Analgesic activity, phenylquinone test; assay type: in vivo, rat; details: read-out: ED50 per os, analgesic activity (phenylquinone test)
Excerpt: 2. Analgesic activity: The analgesic activity of an anti-inflammatory can be examined traditionally by the phenylquinone method based on the fact that intra-peritoneal administration to a rat of an irritant substance such as phenylquinone induces vocal reactions ("squirring") in the animal.
From the number of these reactions one judges the pain sensitivity.

[3] = assay type: in vivo, human; details: for gastric disturbances (subjects treated): Indometacin capsules of 25 mg
Procedure: Thus for example comparing CR 604 administered in capsules of 75 mg (6 per day), with Indometacin in capsules of 25 mg (6 per day), i.e. in approximately equimolecular doses on a group of 60 subjects treated (30 with CR 604 and 30 with Indometacin, one notes that (see Table 7): […]

[4] = Osteolathyrism in the rabbit (aminoacetonitrile); assay type: in vivo; details: for effect on aminoacetonitrile symptoms, in words: rabbit; for Deformed gait of back legs / Deformed gait of front legs / General Condition of Animal / Loss of fur / Loss of weight / Ptosis of auricular pavilion: score 0 (no damage) to 4 (maximum damage), 25 days
Procedure: B. Tests in vivo: Osteolathyrism in the rabbit.
Osteolathrism consists of inducing into young rabbits a dystrophy of the bone joint system, administering every day aminoacetonitrile by i.p. means, in the quantity of 100 mg/kg of body weight. With this treatment, in about 30 days, the following changes are shown in the rabbit:
Loss of weight (related to the checks physiologically treated), ptosis of the auricular pavilion, loss of fur, deformation of the front and rear limbs, deterioration of the general condition.
All this takes place because the aminoacetonitrile is a collagen tissue poison which changes the biochemical composition of the joint cartilages and the bones.
An evaluation of the therapeutic activity can be made either by biochemical evaluation, i.e. by measuring the quantity of aminosugars in these tissues, or by considering only the general symptoms, which are proportional to the diminution of the aminosugars.
In Table 5 this latter evaluation is reported, in which every symptom was evaluated by allotting it a number from 0 to 4, 4 indicating the maximum amount of damage and 0 indicating no damage.
On Table 5 there are given the results of treatment evaluated on the 25th day, comparing the groups treated only with a physiological solution, only with aminoacetonitrile, with aminoacetonitrile and CR 604, with aminoacetonitrile and Indometacin in the prescribed doses.
Each group consisted of 8 animals.

fibroblast culture = assay: Production of mucopolysaccharides from fibroblast culture in vitro; assay type: cell-based
Procedure: a. Tests in vitro: These tests consist of the cultivation in vitro, i.e., outside the organism, of tissue of the same embriological origin in relation to the osteoarticular. Upon the growth of this tissue there is then measured the activities of the various drugs. The units of measurement of these activities is the production of glucosaminoglicanes (mucopolysaccharides measured by the turbidimetric method).
The compounds which form the subject of this invention were evaluated according to this test and compared with known anti-inflammatories.

[5] = Anti-inflammatory activity, paw test (Domenjoz test); assay type: in vivo, rat; details: read-out: ED50 per os, acute anti-inflammatory activity (Domenjoz test)
Procedure: 1a. Anti-inflammatory activity: this activity was measured by the paw test according to Doemnjoz, characterised in its carrying out by the following method:
To young rats of medium weight of 200 g there is administered by hypodermic injection into the right paw an aqueous suspension of carragheen at 1%, 1 hour after the oral administration of the drugs under investigation.
After two hours from the administration of the carragheen, the pawas are disjointed, weighed, and comparison is made between the injected paw, meanwhile swollen, and the paw not interfered with.
This evaluation is expressed both in mg/kg of animal weight and in micromoles/Kg of weight of the animal.

urinary calcium = assay type: in vivo, human
Procedure: (§1) Thus for example comparing CR 604 administered in capsules of 75 mg (6 per day), with Indometacin in capsules of 25 mg (6 per day), i.e. in approximately equimolecular doses on a group of 60 subjects treated (30 with CR 604 and 30 with Indometacin, one notes that (see Table 7):
c. […] Excretion of calcium is related to the destruction of the fibrils of the proteic bone matrix which thus also loses the calcium deposited upon it.
The administration of known anti-inflammatories brings about the lysis of these fibrils with loss of calcium.

[6] = Pellets-induced granuloma test (cotton pellets); assay type: in vivo, rat; details: for ED50: read-out: ED50 per os, acute anti-inflammatory activity (granuloma test)
Procedure: 1b. Pellets-induced granuloma test:
Another important test for the evaluation of an anti-inflammatory is that of cotton pellets. This consists of planting a sterile cotton pellet under the rat's back skin.
This pellet is left in situ for a week while the animals are treated daily with various doses of the drug being examined. Evaluation is effected by weighing the pellets taken at the given time and dried, comparing the weight of those of the treated animals with the checks.

uropepsinogene = assay type: in vivo, human
Procedure: as §1
Gastric secretion of pepsin is increased by agents which irritate and damage the gastric mucosa.

[7] = Tolerance in animals, subacute and chronic; assay type: in vivo; details: up to 6 months administration to animals, quantities greater than those recommended for human beings
Excerpt: For these substances, and particularly for CR 604, tolerance tests were made, subacute and chronic, by up to 6 months administration to the animals.

Solubility = assay type: physicochemical
[8] = oral, fasted 12 hours, killed 4 hours after administration, read-out: ED50 gastrolesive
[9] = after one week, CR 604 75 mg or Indometacin 25 mg capsules, 6 per day
[10] = 5 mg/kg/day i.p. + aminoacetonitrile 100 mg/kg/day
[11] = after three weeks, CR 604 75 mg or Indometacin 25 mg capsules, 6 per day
[12] = 15 mg/kg/day i.p. + aminoacetonitrile 100 mg/kg/day

## COc1ccc2c(c1)c(CC(=O)O)c(C)n2C(=O)c1ccc(Cl)cc1 [Indometacin]
[1]; [8]
  TD50 at 4 h: 33.5 µmol/kg and 12 mg/kg
[1]; po
  gastrolesive dose, in words: very low
[2]; Rattus norvegicus, po
  ED50: 5.6 µmol/kg and 2 mg/kg
[3]; after 1 week of treatment, 6 per day
  gastric disturbances (subjects treated): 46.6%
[3]; after 3 weeks of treatment, 6 per day
  gastric disturbances (subjects treated): 53.3%
[3]; after 3 weeks, CR 604 75 mg or Indometacin 25 mg capsules, 6 per day
  Epigastric pain: 53.3 % of patients in pain
[3]; [9]
  Epigastric pain: 46.6 % of patients in pain
[3]; before treatment
  Epigastric pain: 0 % of patients in pain
[4]
  effect on aminoacetonitrile symptoms, in words: cannot prevent the occurrence of these conditions
[4]; [10]
  Deformed gait of back legs: 1.6
  Deformed gait of front legs: 3.2
  General Condition of Animal: 3.8
  Loss of fur: 3
  Loss of weight: 3.5
  Ptosis of auricular pavilion: 1.4
Fibroblast culture; Fibroblast, 240 h, read-out: Mucopolysaccharide products at the tenth day of incubation
  activity at 2 µg/mL: 78%
[5]; Rattus norvegicus, po
  ED50: 17.3 µmol/kg and 6.2 mg/kg
Urinary calcium; [9]
  Urinary calcium: 137 mg/1000 cc of urine
Urinary calcium; [11]
  Urinary calcium: 148 mg/1000 cc of urine
Urinary calcium; before treatment
  Urinary calcium: 126 mg/1000 cc of urine
Urinary calcium; human
  excretion of urinary calcium, in words: tendency to an increase
[6]; Rattus norvegicus, po
  ED50: 23.5 µmol/kg and 8.41 mg/kg
uropepsinogene; [9]
  Uropepsinogene: 208.1 equivalent mg of tyrosine per
uropepsinogene; [11]
  Uropepsinogene: 345.7 equivalent mg of tyrosine per
uropepsinogene; before treatment
  Uropepsinogene: 164.7 equivalent mg of tyrosine per
uropepsinogene; human
  uropepsinogene in urine, in words: increases

## CCCN(CCC)C(=O)C(CCC(=O)OCCCN1CCN(CCOC(=O)Cc2c(C)n(C(=O)c3ccc(Cl)cc3)c3ccc(OC)cc23)CC1)NC(=O)c1ccccc1 (racemic) [CR 604, N'-2-[1-(p-chlorobenzoyl)-5-methoxy-2-methyl-3-indoleacetoxy]ethyl-N-3-(N-benzoyl-N', N'-di-n-propyl-DL-isoglutaminoyl)-oxypropyl-piperazine]
[1]; po
  gastrolesive dose, in words: so high as to be of no practical importance, being roughly equal to a fatal dose
[7]
  tolerance, subacute and chronic: well tolerated without any special anatomical or functional lesion
[4]
  effect on aminoacetonitrile symptoms, in words: greatly modifies these toxic symptoms
Fibroblast culture; in vitro culture of collagen tissue
  effect on growth and production of mucopolysaccharides, in words: does not harm
Urinary calcium; in vivo
  destruction (lysis) of fibrils of proteic bone matrix, in words: does not induce this destruction or reduces it
  excretion of urinary calcium, in words: reduction in the excretion of urinary calcium
[6]; rat
  anti-inflammatory activity (granuloma test), in words: high anti-inflammatory activity
uropepsinogene; in vivo
  uropepsinogene in urine, in words: diminishes in the urine

## CCCN(CCC)C(=O)C(CCC(=O)OCCCN1CCN(CCOC(=O)Cc2c(C)n(C(=O)c3ccc(Cl)cc3)c3ccc(OC)cc23)CC1)NC(=O)c1ccccc1 (racemic) [CR 604 (di-maleate), N'-2-[1-(p-chlorobenzoyl)-5-methoxy-2-methyl-3-indoleacetoxy]ethyl-N-3-(N-benzoyl-N', N'-di-n-propyl-DL-isoglutaminoyl)-oxypropyl-piperazine]
[1]; [8]
  TD50 at 4 h: 330 µmol/kg
[1]; po
  TD50 at 4 h: 355 mg/kg
[2]; rat, oral
  ED50: 5.3 µmol/kg and 5.72 mg/kg
[3]; in vivo
  Epigastric pain: 0 % of patients in pain
[4]; [12]
  Deformed gait of back legs: 0.6
  Deformed gait of front legs: 0
  General Condition of Animal: 0.2
  Loss of fur: 0
  Loss of weight: 0
  Ptosis of auricular pavilion: 0.2
Fibroblast culture; Fibroblast, 240 h, 6 μg/ml of culture liquid, read-out: Mucopolysaccharide products at the tenth day of incubation
  activity at 6 µg/mL: 108%
[5]; rat, oral 1 hour before carragheen 1%, paws weighed after two hours
  ED50: 11.5 µmol/kg and 12.3 mg/kg
Urinary calcium; in vivo
  Urinary calcium: 132 mg/1000 cc of urine
Solubility; acetone
  solubility in acetone: slightly soluble
Solubility; ethanol
  solubility in ethanol: slightly soluble
Solubility; methanol
  solubility in methanol: more soluble
Solubility; water
  solubility in water, in words: Insoluble
[6]; rat, oral, daily for a week
  ED50: 25.6 µmol/kg and 27.6 mg/kg
uropepsinogene; in vivo
  Uropepsinogene: 216.3 equivalent mg of tyrosine per
